Measurements published in US20220288143A1, “PHARMACEUTICAL COMPOSITION FOR TREATING CANCER, COMPRISING VACCINIA VIRUS AND GRANULOPOIESIS INHIBITOR AS ACTIVE INGREDIENTS” (priority 2019, published 2022).

Key:
[1] = tested on: neutrophils; format: in vivo, mouse; settings: Renca mice; day 8; compared with negative control group (saline); hydroxyurea 30 mg/kg i.p.
[2] = tested on: neutrophils; test: Neutrophil count (CBC), Renca-transplanted mice, lenalidomide or hydroxyurea (Exp. Ex. 17); format: in vivo, mouse; settings: day 5, 30 mg/kg i.p. daily, compared with group administered saline
Description: Balb/c mice (female, 8-week-old) purchased from Orient Bio (Busan, Korea) were subjected to a one-week acclimatization period, and then allografted with Renca cancer cell line (Korea Cell Line Bank) at 5×10^6 cells. After another one-week acclimatization period, the mice were divided into 3 groups (n=3) and administered intraperitoneally with saline, hydroxyurea (30 mg/kg), and lenalidomide (30 mg/kg), respectively, daily from 1 day before the administration of the oncolytic virus to day 4 after the administration.
As a result of performing a complete blood count (CBC) by sacrificing the mice in each group on day 5 after administering the oncolytic virus, it was confirmed that the neutrophil count of the mice in the group administered with lenalidomide was reduced as compared with the group administered with saline, except for one outlier mouse.

Compound	absolute neutrophil count (ANC) [1]	neutrophil count [2]
NC(=O)NO [hydroxyurea]	decreased	significantly lower
Nc1cccc2c1CN(C1CCC(=O)NC1=O)C2=O (stereo not drawn) [lenalidomide]		reduced
